According to patent publication US6180637A, “1,2,5-trisubstituted 1,2-dihydroindazol-3-ones having anti-asthmatic, anti-allergic, anti-inflammatory, immunomodulating and neuroprotective action, process for their preparation and their use as medicaments” (Arzneimittelwerk Dresden GmbH, priority 1998, dated 2001):

Key:
[1] = target: human cyclophilin B (Homo sapiens, UniProt P23284); experiment: Peptidylprolyl isomerase (PPIase) activity inhibition assay; type: biochemical; conditions: 10 μM compound; 10 nmol Cyp B, preincubated at 4° C. for 15 minutes; test peptide Suc-Ala-Ala-Pro-Phe-Nan
Description: For the initial screening (10 μmol/l), the inhibition of the human cyclophilin B in the PPIase test is determined.
Assay for the determination of the peptidylprolyl isomerase (PPIase) activity and inhibition
The PPIase activity is tested according to a globally customary enzyme test: G. Fischer, H. Bang, C. Mech, Biomed. Biochim. Acta 43 1101-1111; G. Fischer, H. Bang, A. Schellenberger, Biochim. Biophys. Acta 791 (1984), 87-97; D. H. Rich et al., J. Med. Chem. 38 (1995), 4164-4170.
The compounds of the general formula I according to the invention are preincubated at 4° C. for 15 minutes together with 10 nmol of Cyp B. The enzyme reaction is started using the test peptide Suc-Ala-Ala-Pro-Phe-Nan after addition of chymotrypsin and HEPES buffer. The extinction change at 390 nm is then monitored and evaluated. The photometrically determined extinction change results from two sub-reactions: a) the rapid chymotryptic cleavage of the trans-peptide; b) the non-enzymatic cis-trans isomerization, which is catalysed by cyclophilins.

[2] = system: pulmonary eosinophil infiltration; experiment: Inhibition of late-phase eosinophilia 24 h after inhalational ovalbumin challenge in actively sensitized guinea-pigs; type: in vivo, guinea-pig; conditions: 2 × 30 mg/kg i.p. -2h/+4h, BAL 24 h after OVA challenge
Description: Inhibition of late-phase eosinophilia 24 h after inhalational ovalbumin challenge in actively sensitized guinea-pigs
The inhibition of pulmonary eosinophil infiltration by the substances is tested in an in vivo test on male Dunkin-Hartley guinea-pigs (200-250 g) sensitized against ovalbumin (OVA). The sensitization is carried out by means of two intraperitoneal injections of a suspension of 20 μg of OVA together with 20 mg of aluminium hydroxide as an adjuvant in 0.5 ml of physiological saline solution per animal on two successive days. 14 days after the second injection, the animals are pretreated with mepyramine maleate (10 mg/kg i.p.) in order to protect them from anaphylactic death. 30 minutes later, the animals are exposed for 30 sec in a plastic box to an OVA aerosol (0.5 mg/ml) which is generated by a nebulizer driven by compressed air (19.6 kPa) (allergen challenge). Control animals are nebulized with physiological saline solution. […] The eosinophils are stained using the Becton-Dickinson test kit (N. 5877) for eosinophils and counted in a Neubauer chamber. […]
The percentage inhibition of the eosinophilia of the test group treated with substance is calculated according to the following formula: […]

Sequence of human cyclophilin B (P23284 34-216): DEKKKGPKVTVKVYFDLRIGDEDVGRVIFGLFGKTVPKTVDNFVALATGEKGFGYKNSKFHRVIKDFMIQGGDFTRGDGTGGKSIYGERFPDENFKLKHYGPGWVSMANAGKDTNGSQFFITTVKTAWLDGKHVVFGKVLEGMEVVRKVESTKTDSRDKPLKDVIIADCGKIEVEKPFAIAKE

Structure (SMILES) | inhibition at 10 µM [1] [%] | Inhibition [%] of eosinophilia ([2]; OVA-sensitized guinea-pigs) [%] | Eosinophils million/animal x ± s, B ([2]; group B (test group treated with substance)) [million/animal]
COc1ccc2c(c1)c(=O)n(Cc1cc([N+](=O)[O-])ccc1O)n2S(=O)(=O)c1ccc(C)cc1 [Example 2, 2-(2-hydroxy-5-nitrobenzyl)-5-methoxy-1-(toluene-4-sulphonyl)-1,2-dihydroindazol-3-one] | 50 | – | –
COc1ccc2c(c1)c(=O)n(Cc1cc([N+](=O)[O-])ccc1O)n2S(=O)(=O)c1ccc(OC(F)(F)F)cc1 [Example 3, 2-(2-hydroxy-5-nitrobenzyl)-5-methoxy-1-(4-trifluoro-methoxybenzenesulphonyl)-1,2-dihydroindazol-3-one] | 93 | – | –
COc1ccc2c(c1)c(=O)n(Cc1cc([N+](=O)[O-])ccc1O)n2S(=O)(=O)c1ccc(Cl)cc1 [Example 4, 2-(2-hydroxy-5-nitrobenzyl)-5-methoxy-1-(4-chloro-benzenesulphonyl)-1,2-dihydroindazol-3-one] | 90 | – | –
CSc1ccc2c(c1)c(=O)n(Cc1cc([N+](=O)[O-])ccc1O)n2Cc1ccc(Cl)c(Cl)c1 [Example 26, 1-(3,4-Dichlorobenzyl)-2-(2-hydroxy-5-nitrobenzyl)-5-methylthio-1,2-dihydroindazol-3-one hydrate] | 98 | – | –
COc1ccc(S(=O)(=O)n2c3ccc(OC)cc3c(=O)n2Cc2cc([N+](=O)[O-])ccc2O)cc1 [Example 1, 2-(2-Hydroxy-5-nitrobenzyl)-5-methoxy-1-(4-methoxybenzenesulphonyl)-1,2-dihydroindazol-3-one] | 70 | 97 | 0.51 ± 0.25
COc1ccc2c(c1)c(=O)n(Cc1cc([N+](=O)[O-])ccc1O)n2S(=O)(=O)c1ccc(F)cc1 [Example 5, 1-(4-fluorobenzenesulphonyl)-2-(2-hydroxy-5-nitrobenzyl)-5-methoxy-1,2-dihydroindazol-3-one] | 67 | – | –
